Source: patent US6444849B1, “Amide derivatives” (Mitsubishi Chemical Corporation, priority 1997, dated 2002)
≈ marks a conversion by molar mass, not a printed value.

What was measured:
in vivo = conditions: both sexes, rat, oral, suspended in 0.5% CMC-Na aqueous solution, SD male and female rats, observed for seven days
Campylobacter jejuni = assay: Measurement of anti-Campylobacter jejuni activity (MIC); assay type: cell-based; conditions: method similar to Test Example 1
Procedure: Brain heart infusion culture medium containing 10% fetal bovine serum (Difco) (5 ml) was taken in a test tube, and then the medium was inoculated with Helicobacter pylori strain 31A isolated from human (obtained from the Metropolitan Health Institute, Microorganism Department, First Laboratory of Bacteria). Cultivation was carried out under slightly aerobic condition (5% oxygen, 10% carbon dioxide, 85% nitrogen) at 37° C. for 48 hours with shaking.
The culture was then inoculated to brain heart infusion medium containing 10% fetal bovine serum at a ratio of 5%, and added with a test compound dissolved in 10% dimethyl sulfoxide. Cultivation was carried out under slightly aerobic condition at 37° C. for 48 hours with shaking, and then growth of Helicobacter pylori was examined. […] From the results shown in Tables 3 and 4, it can be understood that the compounds of the present invention have potent inhibitory activity against Helicobacter pylori.
According to a aimiar method to that of Test Example 1, inhibitory activity of the compound of the present invention against Campylobacter jejune was determined. As a result, MIC of the compound of Example 31 was 0.008 μg/ml. From the result, it can be understood that the compound of the present invention has potent inhibitory activity against Campylobacter jejumni.

Row | SMILES | LD50 (in vivo) [mg/kg] | MIC (Campylobacter jejuni) [ng/mL]
1 | CNC(=O)c1cccc(NC(=O)Cc2cccc3ccccc23)c1 [Example 30, N-(3-Methylcarbamoylphenyl)-1-naphthylacetamide] | ≥ 2000 | 
2 | CNC(=O)c1cccc(NC(=O)Cc2ccc3ccccc3c2)c1 [Example 31, N-(3-Methylcarbamoylphenyl)-2-naphthylacetnide] |  | 8 (≈ 0.0251 µM)
